ChEMBL document CHEMBL1201862, “PubChem BioAssay data set” (2004)
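1) Cells in 96-well plates. 2) Compound, 48 h, 5 concentrations. 3) Linear interpolation between surrounding doses. 4) Unreached endpoint = highest concentration. GI50: concentration for 50% inhibition of growth.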 Active and inactive are the calls of the source. No stated cut-off is given here; in the data, active = GI50 up to about 1.1 µM and inactive = higher.

Legend:
Assay in all cases: NCI-60 cell line screen, 48 h
SK-MEL-5 = system: SK-MEL-5
DLD-1 = system: DLD-1
OVCAR-3 = system: OVCAR-3
HCT-15 = system: HCT-15
A498 = system: A498
HT-29 = system: HT-29
SF-268 = system: SF-268
NCI-H460 = system: NCI-H460
EKVX = system: EKVX
HL-60 = system: HL-60
SK-MEL-28 = system: SK-MEL-28
A549 = system: A549
CCRF-CEM = system: CCRF-CEM
U-251 = system: U-251
SF-539 = system: SF-539
MDA-MB-435 = system: MDA-MB-435
DU-145 = system: DU-145
Hs-578T = system: Hs-578T
PC-3 = system: PC-3
NCI/ADR-RES = system: NCI/ADR-RES

Structure (SMILES) | GI50 (SK-MEL-5) | GI50 (DLD-1) | GI50 (OVCAR-3) | GI50 (HCT-15) [µM] | GI50 (A498) | GI50 (HT-29) | GI50 (SF-268) | GI50 (NCI-H460) | GI50 (EKVX) | GI50 (HL-60) | GI50 (SK-MEL-28) | GI50 (A549) | GI50 (CCRF-CEM) | GI50 (U-251) | GI50 (SF-539) | GI50 (MDA-MB-435) | GI50 (DU-145) | GI50 (Hs-578T) | GI50 (PC-3) | GI50 (NCI/ADR-RES)
CCN(CC)CCOC(c1ccccc1)c1ccccc1.CCOC(=O)Nc1ccc(S(=O)(=O)NCCCl)cc1.CCOC(=O)Nc1ccc(S(=O)(=O)NCCCl)cc1.Nc1ccc(C(=O)O)c(O)c1 | > 100 µM (inactive) | > 100 µM (inactive) | > 100 µM (inactive) | > 100 | > 100 µM (inactive) | > 100 µM (inactive) | > 100 µM (inactive) | > 100 µM (inactive) | > 100 µM (inactive) | > 100 µM (inactive) | > 100 µM (inactive) | > 100 µM (inactive) | > 100 µM (inactive) | > 100 µM (inactive) | > 100 µM (inactive) | – | – | – | – | –
O.O=C([O-])c1ccccc1Nc1ccccc1C(=O)[O-].[Zn+2] | 25.5 µM (inactive) | 29.2 µM (inactive) | 18.8 µM (inactive) | > 60 | 19.2 µM (inactive) | > 70.6 µM (inactive) | 21 µM (inactive) | > 65.9 µM (inactive) | 24.7 µM (inactive) | 23.7 µM (inactive) | 19.9 µM (inactive) | 47.1 µM (inactive) | 24.1 µM (inactive) | 18.7 µM (inactive) | 37.7 µM (inactive) | – | – | – | – | –
O=C1c2ccccc2C(=O)c2c(/C=C\N3CCCCC3)ccnc21 | 0.42 µM (active) | 1.39 µM (inactive) | 1.75 µM (inactive) | 0.582 | 8.99 µM (inactive) | 5.57 µM (inactive) | 12 µM (inactive) | 1.3 µM (inactive) | 15.2 µM (inactive) | 3.01 µM (inactive) | 1.11 µM (active) | 2.12 µM (inactive) | 3.78 µM (inactive) | 2.99 µM (inactive) | 3.12 µM (inactive) | 0.327 µM (active) | 1.44 µM (inactive) | 1.23 µM (inactive) | 0.879 µM (active) | 3.6 µM (inactive)
N=C(N)C1=C(O)NC(=O)N(C2CCCCC2)C1 | > 100 µM (inactive) | > 100 µM (inactive) | > 100 µM (inactive) | > 100 | > 100 µM (inactive) | > 100 µM (inactive) | > 100 µM (inactive) | > 100 µM (inactive) | – | > 100 µM (inactive) | > 100 µM (inactive) | > 100 µM (inactive) | > 100 µM (inactive) | > 100 µM (inactive) | > 100 µM (inactive) | – | – | – | – | –
C=C(OC1C(C)=C2C(C1OC(=O)CCCCCCC)C(C)(OC(C)=O)CC(OC(=O)CCC)C1(O)C2OC(=O)C1(C)O)/C(C)=C/C (configuration not stated) | 0.0125 µM (active) | 0.843 µM (active) | – | 0.0316 | 0.0125 µM (active) | 0.0125 µM (active) | 0.0125 µM (active) | 0.0125 µM (active) | 0.0334 µM (active) | – | 0.0125 µM (active) | 0.0125 µM (active) | 0.0141 µM (active) | 0.0125 µM (active) | 0.0125 µM (active) | < 0.0001 µM (active) | < 0.0001 µM (active) | – | < 0.0001 µM (active) | 0.478 µM (active)
COc1cc2nncc(Sc3cnnc4ccccc34)c2cc1OC | 14.2 µM (inactive) | 19.6 µM (inactive) | 17.4 µM (inactive) | 24.7 | 26.7 µM (inactive) | 21.6 µM (inactive) | 31.1 µM (inactive) | 22.8 µM (inactive) | 37.1 µM (inactive) | 22.1 µM (inactive) | 23 µM (inactive) | 25.5 µM (inactive) | 17.5 µM (inactive) | 25.5 µM (inactive) | 21 µM (inactive) | – | – | – | – | –
C/C(=N\[N+](C)(C)C)C(c1ccccc1)C1(c2ccccc2)C(c2ccccc2)=C1c1ccccc1 (configuration not stated) | > 100 µM (inactive) | > 100 µM (inactive) | > 100 µM (inactive) | 36.9 | > 100 µM (inactive) | > 100 µM (inactive) | – | > 100 µM (inactive) | 40.7 µM (inactive) | > 100 µM (inactive) | – | > 100 µM (inactive) | > 100 µM (inactive) | 66.1 µM (inactive) | 37.5 µM (inactive) | – | – | – | – | –
Cn1cc(NC(=O)c2cc(NC(=O)CCCCCCC(=O)Nc3cc(C(=O)Nc4cc(C(=O)NCCC(=N)N)n(C)c4)n(C)c3)cn2C)cc1C(=O)NCCC(=N)N | 1.92 µM (inactive) | 18.9 µM (inactive) | 24.5 µM (inactive) | 32 | 1.93 µM (inactive) | 73.6 µM (inactive) | 18.7 µM (inactive) | 3.68 µM (inactive) | 16.7 µM (inactive) | 2.84 µM (inactive) | 4.22 µM (inactive) | 7.29 µM (inactive) | > 100 µM (inactive) | 17.3 µM (inactive) | 14.1 µM (inactive) | – | – | – | – | –
Cc1ccc(C(=O)O)cc1NC(=O)c1cc(/C=C/c2ccccc2)[nH]c(=S)n1 | > 100 µM (inactive) | > 49.8 µM (inactive) | > 100 µM (inactive) | > 45 | > 100 µM (inactive) | > 64.4 µM (inactive) | > 100 µM (inactive) | > 100 µM (inactive) | > 100 µM (inactive) | > 69 µM (inactive) | > 100 µM (inactive) | > 65.8 µM (inactive) | > 64.7 µM (inactive) | > 100 µM (inactive) | > 100 µM (inactive) | – | – | – | – | –
NC(=O)c1nnn(Cc2cc(Cl)c(C(=O)c3ccc(Cl)cc3)c(Cl)c2)c1N [CARBOXYAMIDOTRIAZOLE] | 5.96 µM (inactive) | > 9.1 µM (inactive) | 12.3 µM (inactive) | 12.7 | 13.7 µM (inactive) | 22.8 µM (inactive) | 13 µM (inactive) | 14.8 µM (inactive) | 16.8 µM (inactive) | 14.8 µM (inactive) | 27.9 µM (inactive) | 12.7 µM (inactive) | 31 µM (inactive) | 18.2 µM (inactive) | 29.2 µM (inactive) | 11 µM (inactive) | 19.2 µM (inactive) | 39 µM (inactive) | 19.5 µM (inactive) | 32.1 µM (inactive)
c1ccc2c3c([nH]c2c1)[C@H]1C2CCCCN2CN1CC3 (some centres not stated) | > 100 µM (inactive) | > 100 µM (inactive) | > 100 µM (inactive) | > 100 | > 100 µM (inactive) | 81.7 µM (inactive) | 51.6 µM (inactive) | > 100 µM (inactive) | > 100 µM (inactive) | 47.2 µM (inactive) | > 100 µM (inactive) | > 100 µM (inactive) | > 100 µM (inactive) | > 100 µM (inactive) | > 100 µM (inactive) | – | – | – | – | –
CC1=NN(C(=O)c2ccc(Cl)cc2)C(=O)/C1=C/c1cccc(O)c1 | > 100 µM (inactive) | > 100 µM (inactive) | > 100 µM (inactive) | > 100 | > 100 µM (inactive) | > 100 µM (inactive) | > 100 µM (inactive) | > 100 µM (inactive) | > 100 µM (inactive) | > 100 µM (inactive) | > 100 µM (inactive) | > 100 µM (inactive) | > 100 µM (inactive) | > 100 µM (inactive) | > 100 µM (inactive) | – | – | – | – | –
Cc1ccc(S(=O)(=O)C(C#N)c2nc3ccccc3nc2N2CCOCC2)cc1 (configuration not stated) | 48.8 µM (inactive) | 27.3 µM (inactive) | 33.8 µM (inactive) | 31 | 53.7 µM (inactive) | – | 28.6 µM (inactive) | 17.9 µM (inactive) | > 100 µM (inactive) | > 10 µM (inactive) | 23.4 µM (inactive) | 76 µM (inactive) | 13.9 µM (inactive) | 18.7 µM (inactive) | 38.8 µM (inactive) | – | – | – | – | –
Cc1oc2c(C)c3oc(=O)cc(C)c3cc2c1CNC(=O)[C@@H]1OCCOCCOCCOCCOCCOC1C(=O)O (some centres not stated) | > 100 µM (inactive) | > 100 µM (inactive) | > 100 µM (inactive) | > 100 | > 100 µM (inactive) | > 100 µM (inactive) | > 100 µM (inactive) | > 100 µM (inactive) | > 100 µM (inactive) | > 100 µM (inactive) | – | > 100 µM (inactive) | > 100 µM (inactive) | > 100 µM (inactive) | > 100 µM (inactive) | – | – | – | – | –
c1cc(-c2cn3ccsc3n2)ccn1 | > 100 µM (inactive) | > 100 µM (inactive) | > 100 µM (inactive) | > 44.2 | > 100 µM (inactive) | > 100 µM (inactive) | > 100 µM (inactive) | 99.3 µM (inactive) | > 41.8 µM (inactive) | > 44.9 µM (inactive) | > 100 µM (inactive) | > 100 µM (inactive) | > 41.8 µM (inactive) | > 100 µM (inactive) | > 100 µM (inactive) | – | – | – | – | –
